In US20250163047A1, “HETEROCYCLIC COMPOUNDS, COMPOSITIONS THEREOF, AND METHODS OF TREATMENT THEREWITH” (BeiGene, Ltd., priority 2022, published 2025):
Read-outs that look alike come from different tables or passages of the source.

Assays:
Cbl-b (aa36-427) = target: T1, Cbl-b (aa36-427) (Homo sapiens, UniProt Q13191); assay: Co-expressed Cbl-b with BirA biochemical assay (CBLB/E2-Ub binding, HTRF)
T1 construct: Cbl-b (aa36-427, in-house); made in house
From the text: (§1) The assay in the absence of a Cbl-b/Cbl inhibitor, where phosphorylation of Cbl-b/Cbl by the Src kinase allows UbcH5B-Ub to bind to Cbl-b/Cbl and brings the Bodipy-Fluorescein tagged ubiquitin in proximity to the streptavidin-terbium bound to the N-terminal biotinylated Avi-tagged Cbl-b/Cbl. […] The lack of a FRET signal indicates Cbl-b/Cbl is inhibited by the Cbl-b/Cbl inhibitor.

Cbl (aa49-434) = target: T2, Cbl (aa49-434) (Homo sapiens, UniProt P22681); assay: Co-expressed Cbl with BirA biochemical assay (CBL/E2-Ub binding, HTRF); settings: 0.6 nM Cbl co-expressed with BirA, read-out: co-express CBL/E2-Ub-binding assay IC50
T2 construct: Cbl (aa49-434, in-house); made in house
T2 sequence (P22681 49-434): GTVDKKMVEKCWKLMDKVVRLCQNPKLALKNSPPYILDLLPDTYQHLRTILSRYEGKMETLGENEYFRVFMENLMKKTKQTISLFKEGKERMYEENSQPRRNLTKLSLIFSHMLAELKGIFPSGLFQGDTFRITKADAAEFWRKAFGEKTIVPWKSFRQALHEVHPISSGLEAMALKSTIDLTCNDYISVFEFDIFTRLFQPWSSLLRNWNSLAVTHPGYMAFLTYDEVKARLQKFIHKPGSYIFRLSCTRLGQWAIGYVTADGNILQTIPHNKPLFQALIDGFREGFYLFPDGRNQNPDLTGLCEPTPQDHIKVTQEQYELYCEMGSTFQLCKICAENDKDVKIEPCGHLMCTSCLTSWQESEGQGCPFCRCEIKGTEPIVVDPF
From the text: as §1

[1] = 0.6 nM Cbl-b co-expressed with BirA, HTRF, read-out: co-express CBLB/E2-Ub-binding assay IC50

T1 sequence (Q13191 36-427): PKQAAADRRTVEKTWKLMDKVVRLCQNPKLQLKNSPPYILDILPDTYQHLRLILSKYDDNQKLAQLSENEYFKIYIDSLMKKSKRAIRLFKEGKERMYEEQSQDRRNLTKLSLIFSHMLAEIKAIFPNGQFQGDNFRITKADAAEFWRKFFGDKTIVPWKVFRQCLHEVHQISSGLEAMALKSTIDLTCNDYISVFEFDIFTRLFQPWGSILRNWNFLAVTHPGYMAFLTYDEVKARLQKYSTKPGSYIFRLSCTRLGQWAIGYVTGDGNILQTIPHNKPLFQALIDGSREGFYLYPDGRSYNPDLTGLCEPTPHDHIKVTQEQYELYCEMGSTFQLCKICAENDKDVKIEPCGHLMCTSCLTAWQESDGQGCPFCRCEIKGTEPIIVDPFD

IC50 (Cbl-b (aa36-427); [1]) | IC50 (Cbl (aa49-434)) | Compound | IC50 (Cbl-b (aa36-427))
2.3 nM | 25 nM | C[C@H](NCc1cc(C(=O)Nc2cccc([C@]3(c4nncn4C)C[C@@H](CC#N)C3)c2)nc2c1OCC2(C)C)C1CC1 [Compound C26, N-(3-((1s,3R)-3-(cyanomethyl)-1-(4-methyl-4H-1,2,4-triazol-3-yl)cyclobutyl)phenyl)-7-((((S)-1-cyclopropylethyl)amino)methyl)-3,3-dimethyl-2,3-dihydrofuro[3,2-b]pyridine-5-carboxamide] | –
1.8 nM | 17.7 nM | Cn1cnnc1[C@]1(c2cccc(NC(=O)c3cc(CNC4(C)CCC4)c4c(n3)C(C)(C)CN4)c2)C[C@H](CC#N)C1 [Compound C21, N-(3-((1s, 3s)-3-(cyanomethyl)-1-(4-methyl-4H-1,2,4-triazol-3-yl)cyclobutyl)phenyl)-3,3-dimethyl-7-(((1-methylcyclobutyl)amino)methyl)-2,3-dihydro-1H-pyrrolo[3,2-b]pyridine-5-carboxamido] | –
6.3 nM | 100 nM | Cn1cnnc1[C@]1(c2cccc(NC(=O)c3cc(CNC4(C)CCC4)c4c(n3)C(C)(C)CO4)c2)C[C@H](CC#N)C1 [Compound C23, N-(3-((1s, 3s)-3-(cyanomethyl)-1-(4-methyl-4H-1,2,4-triazol-3-yl)cyclobutyl)phenyl)-3,3-dimethyl-7-(((1-methylcyclobutyl)amino)methyl)-2,3-dihydrofuro[3,2-b]pyridine-5-carboxamide] | –
2.8 nM | 49.5 nM | Cn1cnnc1[C@]1(c2cccc(NC(=O)c3cc(CNCC4(C)CCC4)c4c(n3)C(C)(C)CO4)c2)C[C@H](CC#N)C1 [Compound C25, N-(3-((1s, 3s)-3-(cyanomethyl)-1-(4-methyl-4H-1,2,4-triazol-3-yl)cyclobutyl)phenyl)-3,3-dimethyl-7-((((1-methylcyclobutyl)methyl)amino)methyl)-2,3-dihydrofuro[3,2-b]pyridine-5-carboxamide] | –
0.7 nM | 1.2 nM | C[C@@H]1CN(Cc2cc(C(=O)Nc3cccc([C@]4(c5nncn5C)C[C@@H](CC#N)C4)c3)nc3c2NCC3(C)C)CC[C@@H]1F [Compound C47, 7-{[(3R,4S)-4-fluoro-3-methylpiperidin-1-yl]methyl}-3,3-dimethyl-N-{3-[(1s, 3s)-3-(cyanomethyl)-1-(4-methyl-1,2,4-triazol-3-yl)cyclobutyl]phenyl}-1H,2H-pyrrolo[3,2-b]pyridine-5-carboxamide] | –

Further lines, the compound ahead of its results:

Compound | IC50 (Cbl-b (aa36-427); [1]) | IC50 (Cbl (aa49-434)) | IC50 (Cbl-b (aa36-427))
Cn1cnnc1[C@]1(c2cccc(NC(=O)c3cc(CNC4(C)CC4)cc4c(Cl)cnn34)c2)C[C@H](C)C1 [Compound A96, 3-chloro-N-(3-((1s, 3s)-3-methyl-1-(4-methyl-4H-1,2,4-triazol-3-yl)cyclobutyl)phenyl)-5-(((1-methylcyclopropyl)amino)methyl)pyrazolo[1,5-a]pyridine-7-carboxamide] | 0.5 nM | 3.2 nM | –
Cn1cnnc1[C@]1(c2cccc(NC(=O)c3cc(CNC4(C)CC4)cn4cc(F)nc34)c2)C[C@H](CC#N)C1 [Compound A84, N-(3-((1s, 3s)-3-(cyanomethyl)-1-(4-methyl-4H-1,2,4-triazol-3-yl)cyclobutyl)phenyl)-2-fluoro-6-(((1-methylcyclopropyl)amino)methyl)imidazo[1,2-a]pyridine-8-carboxamide] | 0.5 nM | 12 nM | –
CC(C)CNCc1cc(C(=O)Nc2cncc([C@]3(c4nncn4C)C[C@@H](C)C3)c2)nc2cc[nH]c12 [Compound B2, 7-((isobutylamino)methyl)-N-(5-((1s, 3s)-3-methyl-1-(4-methyl-4H-1,2,4-triazol-3-yl)cyclobutyl)pyridin-3-yl)-1H-pyrrolo[3,2-b]pyridine-5-carboxamide] | 1.8 nM | 4.7 nM | –
CC(C)CNCc1cc(C(=O)Nc2cncc([C@]3(c4nncn4C)C[C@@H](C)C3)c2)nc2c(Cl)c[nH]c12 [Compound B55, 3-chloro-7-((isobutylamino)methyl)-N-(5-((1s, 3s)-3-methyl-1-(4-methyl-4H-1,2,4-triazol-3-yl)cyclobutyl)pyridin-3-yl)-1H-pyrrolo[3,2-b]pyridine-5-carboxamide] | – | 14 nM | 1.6 nM
C[C@@H]1CN(Cc2cc(C(=O)Nc3cncc([C@]4(c5nncn5C)C[C@@H](C)C4)c3)c3nccn3c2)CC[C@@H]1F [Compound A54, 6-(((3R,4S)-4-fluoro-3-methylpiperidin-1-yl)methyl)-N-(5-((1s,3S)-3-methyl-1-(4-methyl-4H-1,2,4-triazol-3-yl)cyclobutyl)pyridin-3-yl)imidazo[1,2-a]pyridine-8-carboxamide] | 1.9 nM | 6 nM | –
C[C@H]1CCCN(Cc2cc(C(=O)Nc3cccc([C@]4(c5nncn5C)C[C@@H](C)C4)c3)c3ncc(F)n3c2)C1 [Compound A6, 3-fluoro-6-{[(3S)-3-methylpiperidin-1-yl]methyl}-N-{3-[(1r, 3s)-3-methyl-1-(4-methyl-1,2,4-triazol-3-yl)cyclobutyl]phenyl}imidazo[1,2-a]pyridine-8-carboxamide] | 7.2 nM | 19.8 nM | –
Cn1cnnc1[C@]1(c2cccc(NC(=O)c3cc(CNC4(C)CCC4)cn4ccnc34)c2)C[C@H](CC#N)C1 [Compound A36, N-(3-((1s, 3s)-3-(cyanomethyl)-1-(4-methyl-4H-1,2,4-triazol-3-yl)cyclobutyl)phenyl)-6-(((1-methylcyclobutyl)amino)methyl)imidazo[1,2-a]pyridine-8-carboxamide compound with N-(3-((1s, 3s)-3-(cyanomethyl)-1-(4-methyl-4H-1,2,4-triazol-3-yl)cyclobutyl)phenyl)-6-formylimidazo[1,2-a]pyridine-8-carboxamide (1:1)] | 1.7 nM | 16 nM | –
Cn1cnnc1C[C@]1(c2cccc(NC(=O)c3cc(CNCC4(C)CCCC4)cn4ccnc34)c2)C[C@H](C#N)C1 [Compound A24, N-(3-((1r, 3r)-3-cyano-1-((4-methyl-4H-1,2,4-triazol-3-yl)methyl)cyclobutyl)phenyl)-6-((((1-methylcyclopentyl)methyl)amino)methyl)imidazo[1,2-a]pyridine-8-carboxamide] | 2.9 nM | 8.6 nM | –
N-(3-((1s,3R)-3-methyl-1-(4-methyl-4H-1,2,4-triazol-3-yl)cyclobutyl)phenyl)-7′-(((S)-3-methylpiperidin-1-yl)methyl)-1′,2′-dihydrospiro[cyclopropane-1,3′-pyrrolo[3,2-b]pyridine]-5′-carboxamide [Compound C51] | 1.5 nM | 4.9 nM | –
Cn1cnnc1[C@]1(c2cccc(NC(=O)c3cc(CNC4(C)CC4)cn4ncnc34)c2)C[C@H](C)C1 [Compound A87, N-(3-((1s, 3s)-3-methyl-1-(4-methyl-4H-1,2,4-triazol-3-yl)cyclobutyl)phenyl)-6-(((1-methylcyclopropyl)amino)methyl)-[1,2,4]triazolo[1,5-a]pyridine-8-carboxamide] | 1.5 nM | 12 nM | –
Cn1cnnc1[C@]1(c2cncc(NC(=O)c3cc(CNCC4CCC4)cn4c(F)cnc34)c2)C[C@H](C)C1 [Compound A71, 6-{[(cyclobutylmethyl)amino]methyl}-3-fluoro-N-{5-[(1r, 3s)-3-methyl-1-(4-methyl-1,2,4-triazol-3-yl)cyclobutyl]pyridin-3-yl}imidazo[1,2-a]pyridine-8-carboxamide] | 0.6 nM | 0.9 nM | –
Cc1cnc2c(C(=O)Nc3cncc([C@]4(c5nncn5C)C[C@@H](C)C4)c3)cc(CN[C@@H](C)C3CC3)cn12 [Compound A64, 6-((((S)-1-cyclopropylethyl)amino)methyl)-3-methyl-N-(5-((1s,3R)-3-methyl-1-(4-methyl-4H-1,2,4-triazol-3-yl)cyclobutyl)pyridin-3-yl)imidazo[1,2-a]pyridine-8-carboxamide] | 2.2 nM | 26 nM | –
Cc1cnc2c(C(=O)Nc3cccc([C@]4(c5nncn5C)C[C@@H](C)C4)c3)cc(CNCC3CCC3)cn12 [Compound A53, 6-(((cyclobutylmethyl)amino)methyl)-3-methyl-N-(3-((1s, 3s)-3-methyl-1-(4-methyl-4H-1,2,4-triazol-3-yl)cyclobutyl)phenyl)imidazo[1,2-a]pyridine-8-carboxamide] | 2 nM | 7.7 nM | –
Cn1cnnc1[C@]1(c2cccc(NC(=O)c3cc(CNCC4CCC4)c4[nH]ccc4n3)c2)C[C@H](C)C1 [Compound B32, 7-(((cyclobutylmethyl)amino)methyl)-N-(3-((1s, 3s)-3-methyl-1-(4-methyl-4H-1,2,4-triazol-3-yl)cyclobutyl)phenyl)-1H-pyrrolo[3,2-b]pyridine-5-carboxamide] | 1 nM | 1.5 nM | –
C[C@H](NCc1cc(C(=O)Nc2cccc([C@]3(c4nncn4C)C[C@@H](C)C3)c2)nc2c(F)c[nH]c12)C1CC1 [Compound B37, 7-((((S)-1-cyclopropylethyl)amino)methyl)-3-fluoro-N-(3-((1s,3R)-3-methyl-1-(4-methyl-4H-1,2,4-triazol-3-yl)cyclobutyl)phenyl)-1H-pyrrolo[3,2-b]pyridine-5-carboxamide] | 0.8 nM | 4.5 nM | –
